In US8450522B2, “Conformationally constrained carboxylic acid derivatives useful for treating metabolic disorders” (Amgen Inc., priority 2008, dated 2013):

Each molecule was assayed against GPR40 (Homo sapiens, UniProt O14842) (assay: Cell-based aequorin assay (CHO cells stably transfected with GPR40 and aequorin)). Conditions: activation of human GPR40, CHO cells, 0.01% HSA.
Set-up: expressed in transfected cells
Method: Briefly, the Aequorin assays were performed on doubly stable CHO cells expressing GPR40 and Aequorin DNA. […] The luminescence was recorded over a period of 20 seconds with a Microlumat luminometer (Berthold).
Cell-based aequorin assays were employed to characterize the modulatory activity of compounds on the GPR40 signaling pathway. In an exemplary assay, CHO cells were stably transfected with both GPR40 and Aequorin (Euroscreen). Cells were detached from the tissue culture dish with 2 mL of trypsin (0.25% (w/v)). Trypsinization was halted with 28 mL of Hanks Buffered Salt Solution containing 20 mM Hepes (H/HBSS) and 0.01% fatty acid-free human serum albumin (HSA). Coelantrazine is added to 1 ug/mL, and the cells were incubated for 2 hours at room temperature. Compounds were dissolved in DMSO for preparation of 10 mM stock solutions. Compounds were diluted in H/HBSS containing 0.01% HSA. Serial dilutions of the test compounds were prepared to determine dose response.
Aequorin luminescence measurements were made using an EG&G Berthold 96-well luminometer, and the response was measured over a 20 second interval after cells and compounds were mixed. The maximum relative light units was plotted to determine dose response. The EC50 (effective concentration to reach 50% maximal response) was determined from the dose response plot.

Chain of GPR40 (O14842 whole entry): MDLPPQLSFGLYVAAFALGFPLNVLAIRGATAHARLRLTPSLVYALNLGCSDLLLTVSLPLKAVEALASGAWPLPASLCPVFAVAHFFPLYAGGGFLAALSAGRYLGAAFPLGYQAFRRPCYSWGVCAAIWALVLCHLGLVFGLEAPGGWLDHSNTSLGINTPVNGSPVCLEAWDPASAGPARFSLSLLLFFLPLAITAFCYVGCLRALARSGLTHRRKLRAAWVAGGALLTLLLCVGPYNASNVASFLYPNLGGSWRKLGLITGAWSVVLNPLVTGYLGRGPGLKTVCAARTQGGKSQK

Question: `COc1ccc(F)c(-c2ccc(COc3ccc4c(c3)[C@H](CC(=O)O)C4)cc2C(C)(C)C)c1` (single isomer, unassigned) [Example 3, (R)-2-(5-(3-t-Butyl-4-(2-fluoro-5-methoxyphenyl)benzyloxy)-1,2-dihydrocyclobutabenzen-1-yl)acetic acid or (S)-2-(5-(3-t-butyl-4-(2-fluoro-5-methoxyphenyl)benzyloxy)-1,2-dihydrocyclobutabenzen-1-yl)acetic acid] was tested. Which EC50 did it give?
Answer: The EC50 was 1000 to 10000 nM.

Question: How did the EC50 turn out when `COc1ccc(F)c(-c2ccc(COc3ccc4c(c3)[C@@H](CC(=O)O)C4)cc2C(C)(C)C)c1` (single isomer, unassigned) [Example 4, ((7R)-4-(((2-(1,1-Dimethylethyl)-2′-fluoro-5′-(methyloxy)-1,1′-biphenyl-4-yl)methyl)oxy)bicyclo[4.2.0]octa-1,3,5-trien-7-yl)acetic acid or ((7R)-4-(((2-(1,1-dimethylethyl)-2′-fluoro-5′-(methyloxy)-1,1′-biphenyl-4-yl)methyl)oxy)bicyclo[4.2.0]octa-1,3,5-trien-7-yl)acetic acid] was run?
Answer: Its EC50 is over 10000 nM.

Question: How did the EC50 turn out when `COc1ccc(F)c(-c2ccc(COc3ccc4c(c3)CC[C@@H]4CC(=O)O)cc2C(C)(C)C)c1` (single isomer, unassigned) [Example 5, (R)-Methyl 2-(5-(3-t-butyl-4-(2-fluoro-5-methoxyphenyl)benzyloxy)-2,3-dihydro-1H-inden-1-yl)acetic acid or (S)-methyl 2-(5-(3-t-butyl-4-(2-fluoro-5-methoxyphenyl)benzyloxy)-2,3-dihydro-1H-inden-1-yl)acetic acid] was run?
Answer: The EC50 was 1000 to 10000 nM.

Question: With `COc1ccc(F)c(-c2ccc(COc3ccc4c(c3)[C@@H](CC(=O)O)C(C)(C)C4)cc2C(C)(C)C)c1` (single isomer, unassigned) [Example 8, ((1S)-6-(((2-(1,1-Dimethylethyl)-2′-fluoro-5′-(methyloxy)-1,1′-biphenyl-4-yl)methyl)oxy)-2,2-dimethyl-2,3-dihydro-1H-inden-1-yl)acetic acid or ((1R)-6-(((2-(1,1-dimethylethyl)-2′-fluoro-5′-(methyloxy)-1,1′-biphenyl-4-yl)methyl)oxy)-2,2-dimethyl-2,3-dihydro-1H-inden-1-yl)acetic acid] as the molecule, how does the EC50 read?
Answer: Its EC50 is 1000 to 10000 nM.

Question: `COc1ccc(F)c(-c2ccc(COc3ccc4c(c3)[C@@H](CC(=O)O)C(C)(C)C4)cc2C2=CCCC2(C)C)c1` (single isomer, unassigned) [Example 9, ((1S)-6-(((2-(5,5-Dimethyl-1-cyclopenten-1-yl)-2′-fluoro-5′-(methyloxy)-1,1′-biphenyl-4-yl)methyl)oxy)-2,2-dimethyl-2,3-dihydro-1H-inden-1-yl)acetic acid or ((1R)-6-(((2-(5,5-dimethyl-1-cyclopenten-1-yl)-2′-fluoro-5′-(methyloxy)-1,1′-biphenyl-4-yl)methyl)oxy)-2,2-dimethyl-2,3-dihydro-1H-inden-1-yl)acetic acid] was tested. Which EC50 did it give?
Answer: The EC50 was 100 to 1000 nM.

Question: With `COc1ccc(F)c(-c2ccc(COc3ccc4c(c3)[C@H](CC(=O)O)C(C)(C)C4)cc2C(C)(C)C)c1` (single isomer, unassigned) [Example 10, ((1R)-6-(((2-(1,1-Dimethylethyl)-2′-fluoro-5′-(methyloxy)-1,1′-biphenyl-4-yl)methyl)oxy)-2,2-dimethyl-2,3-dihydro-1H-inden-1-yl)acetic acid or ((1S)-6-(((2-(1,1-dimethylethyl)-2′-fluoro-5′-(methyloxy)-1,1′-biphenyl-4-yl)methyl)oxy)-2,2-dimethyl-2,3-dihydro-1H-inden-1-yl)acetic acid] as the molecule, how does the EC50 read?
Answer: The EC50 was 1000 to 10000 nM.

Question: For `COc1ccc(F)c(-c2ccc(COc3ccc4c(c3)[C@@H](C(C)(C)C(=O)O)CC4)cc2C2=CCCC2(C)C)c1` (single isomer, unassigned) [Example 11, 2-((1S)-6-(((2-(5,5-Dimethyl-1-cyclopenten-1-yl)-2′-fluoro-5′-(methyloxy)-1,1′-biphenyl-4-yl)methyl)oxy)-2,3-dihydro-1H-inden-1-yl)-2-methylpropanoic acid or 2-((1R)-6-(((2-(5,5-dimethyl-1-cyclopenten-1-yl)-2′-fluoro-5′-(methyloxy)-1,1′-biphenyl-4-yl)methyl)oxy)-2,3-dihydro-1H-inden-1-yl)-2-methylpropanoic acid], which EC50 is on record?
Answer: Its EC50 is 100 to 1000 nM.

Question: For `COc1ccc(F)c(-c2ccc(COc3ccc4c(c3)[C@@H](C(C)(C)C(=O)O)CC4)cc2C(C)(C)C)c1` (single isomer, unassigned) [Example 12, 2-((1S)-6-(((2-(1,1-Dimethylethyl)-2′-fluoro-5′-(methyloxy)-1,1′-biphenyl-4-yl)methyl)oxy)-2,3-dihydro-1H-inden-1-yl)-2-methylpropanoic acid or 2-((1R)-6-(((2-(1,1-Dimethylethyl)-2′-fluoro-5′-(methyloxy)-1,1′-biphenyl-4-yl)methyl)oxy)-2,3-dihydro-1H-inden-1-yl)-2-methylpropanoic acid], which EC50 is on record?
Answer: The EC50 was 100 to 1000 nM.

Question: How did the EC50 turn out when `COc1cccc(-c2ccc(COc3ccc4c(c3)[C@@H](CC(=O)O)CC4)cc2C(C)(C)C)c1` (single isomer, unassigned) [Example 25, ((1R)-6-(((2-(1,1-Dimethylethyl)-3′-(methyloxy)-1,1′-biphenyl-4-yl)methyl)oxy)-2,3-dihydro-1H-inden-1-yl)acetic acid or ((1S)-6-(((2-(1,1-dimethylethyl)-3′-(methyloxy)-1,1′-biphenyl-4-yl)methyl)oxy)-2,3-dihydro-1H-inden-1-yl)acetic acid] was run?
Answer: Its EC50 is 1000 to 10000 nM.

Question: For `COc1cccc(-c2ccc(COc3ccc4c(c3)[C@@H]([C@@H](C)C(=O)O)CC4)cc2C(C)(C)C)c1` (single isomer, unassigned) [Example 26, 2-((1R)-6-(((2-(1,1-dimethylethyl)-3′-(methyloxy)-1,1′-biphenyl-4-yl)methyl)-oxy)-2,3-dihydro-1H-inden-1-yl)propanoic acid or stereoisomer thereof], which EC50 is on record?
Answer: Its EC50 is 1000 to 10000 nM.

Question: With `CCC(C)(C)[C@H](OC)c1cc(COc2ccc3c(c2)[C@@H]([C@@H](C)C(=O)O)CC3)ccc1-c1cc(OC)ccc1F` (single isomer, unassigned) [Example 27, 2-((1R)-6-(((2-((1R)-2,2-Dimethyl-1-(methyloxy)butyl)-2′-fluoro-5′-(methyloxy)-1,1′-biphenyl-4-yl)methyl)oxy)-2,3-dihydro-1H-inden-1-yl)propanoic acid (27) or stereoisomer thereof] as the molecule, how does the EC50 read?
Answer: Its EC50 is 1000 to 10000 nM.

Question: How did the EC50 turn out when `C=CC(C)(C)[C@H](O)c1cc(COc2ccc3c(c2)[C@@H]([C@@H](C)C(=O)O)CC3)ccc1-c1cc(OC)ccc1F` (single isomer, unassigned) [Example 28, 2-((1R)-6-(((2′-Fluoro-2-((1S)-1-hydroxy-2,2-dimethyl-3-butenyl)-5′-(methyloxy)-1,1′-biphenyl-4-yl)methyl)oxy)-2,3-dihydro-1H-inden-1-yl)propanoic acid or stereoisomer thereof] was run?
Answer: The EC50 was 1000 to 10000 nM.

Question: With `COc1ccc(F)c(-c2ccc(COc3ccc4c(c3)C[C@@H]4CC(=O)O)cc2C(C)(C)C)c1` (single isomer, unassigned) [Example 29, ((7S)-3-((2′-Fluoro-5′-methoxy-2-(2-methyl-2-propanyl)-4-biphenylyl)methoxy)bicycle[4.2.0]octa-1,3,5-trien-7-yl)acetic acid or ((7R)-3-((2′-fluoro-5′-methoxy-2-(2-methyl-2-propanyl)-4-biphenylyl)methoxy)bicycle[4.2.0]octa-1,3,5-trien-7-yl)acetic acid] as the molecule, how does the EC50 read?
Answer: Its EC50 is 1000 to 10000 nM.

Question: How did the EC50 turn out when `COc1ccc(F)c(-c2ccc(COc3ccc4c(c3)C[C@H]4CC(=O)O)cc2C(C)(C)C)c1` (single isomer, unassigned) [Example 30, ((7S)-3-((2′-Fluoro-5′-methoxy-2-(2-methyl-2-propanyl)-4-biphenylyl)methoxy)bicycle[4.2.0]octa-1,3,5-trien-7-yl)acetic acid or ((7R)-3-((2′-fluoro-5′-methoxy-2-(2-methyl-2-propanyl)-4-biphenylyl)methoxy)bicycle[4.2.0]octa-1,3,5-trien-7-yl)acetic acid] was run?
Answer: The EC50 was 1000 to 10000 nM.

Question: With `COc1ccc(F)c(-c2ccc(COc3ccc4c(c3)CC[C@@H]4CC(=O)O)cc2C(C)(C)C)c1` (single isomer, unassigned) [Example 31, ((1S)-5-((2′-Fluoro-5′-methoxy-2-(2-methyl-2-propanyl)-4-biphenylyl)methoxy)-2,3-dihydro-1H-inden-1-yl)acetic acid or ((1R)-5-((2′-fluoro-5′-methoxy-2-(2-methyl-2-propanyl)-4-biphenylyl)methoxy)-2,3-dihydro-1H-inden-1-yl)acetic acid] as the molecule, how does the EC50 read?
Answer: Its EC50 is 1000 to 10000 nM.

Question: With `COc1ccc(F)c(-c2ccc(COc3ccc4c(c3)CC[C@H]4CC(=O)O)cc2C(C)(C)C)c1` (single isomer, unassigned) [Example 32, ((1S)-5-((2′-Fluoro-5′-methoxy-2-(2-methyl-2-propanyl)-4-biphenylyl)methoxy)-2,3-dihydro-1H-inden-1-yl)acetic acid or ((1R)-5-((2′-fluoro-5′-methoxy-2-(2-methyl-2-propanyl)-4-biphenylyl)methoxy)-2,3-dihydro-1H-inden-1-yl)acetic acid] as the molecule, how does the EC50 read?
Answer: Its EC50 is 1000 to 10000 nM.

Question: For `COc1cc(-c2ccc(COc3ccc4c(c3)[C@H](CC(=O)O)CCC4)cc2[C@H]2CCCC2(C)C)c(F)cn1` (single isomer, unassigned) [Example 47], which EC50 is on record?
Answer: The EC50 was 1000 to 10000 nM.

Question: How did the EC50 turn out when `COc1cc(-c2ccc(COc3ccc4c(c3)[C@](C)(CC(=O)O)CCC4)cc2[C@H]2CCCC2(C)C)c(F)cn1` (single isomer, unassigned) [Example 49] was run?
Answer: The EC50 was 100 to 1000 nM.

Question: How did the EC50 turn out when `COc1ccc(F)c(-c2ccc(COc3ccc4c(c3)[C@H]([C@@H](C)C(=O)O)CC4)cc2C(C)(C)C)c1` [Example 13] was run?
Answer: Its EC50 is 100 to 1000 nM.
